For assay [1], the system named is HSC. Kind of assay: HSC proliferation by BrdU assay. The format is cell-based. The conditions noted are these: 24-80 μM; for HSC proliferation (BrdU assay): 24 h, 48 h and 72 h. The protocol:
The Cell Proliferation ELISA, BrdU kit was designed to quantitate cell proliferation bases on the measurement of BrdU incorporation during DNA synthesis in proliferation cells. Briefly, cells (1×10^4 cells/well) were seeded in 100 μl medium in a 96-well plate (Nunc, Denmark) and cultured for 24 h to allow the cells to attach and then treated with three different concentrations ([…]) of either Compound A, B, C and D for 24 h, 48 h and 72 h and the plates were incubated in 37° C. After incubation, the culture medium was labeled with 10 μl/well BrdU (Roche Diagnostic Inc.), and the cells were reincubated for addition 16 h at 37° C. Labeling medium was removed using 10 min centrifuge at 200×g and blow dried. Cells were fixed using 200 μl FixDenat solution and incubated for 30 min at room temperature. Removing the FixDenat solution, 100 μl of anti-BrdU-POD was added and incubated for 90 min at room temperature. After the incubation period, microplates were washed three times with PBS buffer and 100 μl substrate solution was added and incubated for 30 min. Stop solution was added (25 μl of 1 M H2SO4) and absorbance of the samples was measured using ELISA reader at 450 nm.
(Uptake of a labelled nucleoside into DNA is a usual measure of proliferation.)

Assay [2] deals with B16F10 cells. Briefly: Melanin content in B16F10 cells after UV irradiation. The format is cell-based, murine. The conditions noted are these: 10 μM for 72 hrs prior to UV irradiation; UV alone 33.80±4.6% increase over non-UV cells (7.4±0.3 μg/mg protein). From the text: The dermal fibroblast cell line CG1639 was obtained from the BCRC (Bioresource Collection and Research Center) and cultured in Dulbecco's modified Eagle media (DMEM, Gibco by Invitrogen) with 1% antibiotic antimycotic (Gibco by Invitrogen) and 15% fetal bovine serum (Gibco by Invitrogen). The fetal rat skin keratinocyte, FRSK cell line was obtained from the Japan HSRRB (Health Science Research Resources Bank) and cultured in Eagle's minimal essential media (MEM, Gibco by Invitrogen) supplemented with 10% fetal bovine serum (FBS) (Gibco by Invitrogen) and 1% antibiotic antimycotic (Gibco by Invitrogen). B16F10 cells, a murine melanoma cell line, were purchased from American Type Culture Collection (ATCC, Rockville, Md., USA) and was cultured in Eagle's Minimum Essential Medium (MEM; Sigma, St. Louis, Mo.) supplemented with 10% fetal bovine serum (FBS; HyClone Lab. Inc., Logan, Utah), 0.02% antibiotic-antimycotic liquid (penicillin, 10 000 U mL^−1; streptomycin, 10 000 μg mL^−1 and amphotericin B, 25 μg mL^−1; Invitrogen, Carlsbad, Calif.).
To investigate the induction of melanogenesis and the oxidative stress by direct UV irradiation, melanoma cells and keratocytes were irradiated with 8 J cm^−2 of UVA (FL15BLB, 352 nm, 15 W; Toshiba, Tokyo, Japan) and 10 mJ cm^−2 of UVB (G15T8E, 306 nm, 15 W; Sankyo Denki, Tokyo, Japan) in a HANKS' balanced salt solution (Sigma). The UV intensity was measured by using a Model UVX Digital Radiometer (UVP Inc., Upland, Calif.).
B16F10 and FRSK cells were exposed to Hepasim compounds A-D by two different concentrations (3 or 10 μM) for 72 hrs prior to UVA irradiation. DMEM was replaced with phosphate buffered saline (PBS) to avoid generation of medium-derived toxic photoproducts prior to UV irradiation. Cells were collected 24 hrs after UVA irradiation and assayed. For preparation of cell lysate, the harvested cells were pelleted by centrifugation and lysed in lysis buffer containing 50 mM Tris-HCl, 10 mM ethylene diaminetetraacetic acid (EDTA), 1% (v/v) Tri-ton X-100, phenylmethylsulfonyl fluoride (PMSF) (100 mg/ml) and pepstatin A (1 mg/ml) in DMSO and leupeptin (1 mg/ml) in H2O, pH 6.8. The cells were centrifuged at 10,000 rpm for 10 min and the total cell lysate was collected and stored at −80° C.
In order to measure the melanin contents, B16F10 cells were sonicated on ice and the mixture was centrifuged (25 000 g, 10 min, 4° C.). The supernatant was transferred, and pellets were dissolved in 0.85 N KOH at 60° C. for 20 min. Standard melanin (Sigma) was incubated in parallel. Spectrophotometric analysis of melanin content was then performed at an absorbance of 405 nm

Assay [3] has as its system cirrhotic animals. Briefly: Biochemical analysis of serum (liver damage parameters) in DEN cirrhotic animal model. The format is in vivo, Wistar rats. The conditions noted are these: compound B 7 mg/kg, compound C 14 mg/kg, ACM 320 mg/kg/day, gastric tube, 5th to 11th week, vs control group. The protocol: Samples of 1 ml blood were gathered from the retro-orbital plexus of each […] and immediately centrifuged at 1300×g at 4° C., plasma was kept at −20° C. for liver function tests. Alanine aminotranferease (ALT), aspartate aminotransferase (AST), total bilirubin and Gamma-glutamyl transpeptidase (γ-GT) levels were determined using commercial enzymatic kits with a colorimetric analyzer (Dri-Chem 3000, Fuji Photo Film Co, Tokyo, Japan).

Assay [4] concerns cirrhotic animals. Kind of assay: Liver fibrosis: hydroxyproline content in the liver and Sirius red staining, DEN cirrhotic animal model. The conditions noted are these: compound B 7 mg/kg, compound C 14 mg/kg, ACM 320 mg/kg, vs control group.

As for `CC(C)=CCOc1ccc(C2=C(CC(C)C)C(=O)N(O)C2=O)cc1` [Compound C, 3-isobutyl-4-[4-(3-methyl-2-butenyloxy)phenyl]-1H-pyrrol-1-ol-2,5-dione], the “HSC proliferation (BrdU assay)” value in assay [1] is “markedly proliferation inhibition”. In addition, the “melanin production in UV-irradiated B16F10 cells” value in assay [2] turned out to be 28.92±5.3%. In assay [3], the “serum Alanine aminotranferease (ALT) level” value is reported as “significantly reduced”, the “serum Gamma-glutamyl transpeptidase (γ-GT) level” value was “significantly reduced”, the “serum aspartate aminotransferase (AST) level” value is recorded as “significantly reduced” and the “serum total bilirubin level” value was “significantly reduced”. The “liver cirrhosis (hydroxyproline levels and Sirius red-positive areas)” value in assay [4] is reported as “markedly ameliorated”.
As for `CC(C)=CCOc1ccc(C2=C(CC(C)C)C(=O)NC2=O)cc1` [Compound B, 3-isobutyl-4-[4-(3-methyl-2-butenyloxy)phenyl]-1H-pyrrol-2,5-dione], in assay [1], the “potency of effect on HSC proliferation and apoptosis compared to other compounds” value was “most potent effect”; the “HSC proliferation (BrdU assay)” value is reported as “markedly proliferation inhibition”. The “melanin production in UV-irradiated B16F10 cells” value in assay [2] is 29.40±4.3%. Further, in assay [3], the “serum Alanine aminotranferease (ALT) level” value is “significantly reduced”, the “serum Gamma-glutamyl transpeptidase (γ-GT) level” value was “significantly reduced”, the “serum aspartate aminotransferase (AST) level” value is listed as “significantly reduced” and the “serum total bilirubin level” value was “significantly reduced”. For the same molecule, the “liver cirrhosis (hydroxyproline levels and Sirius red-positive areas)” value in assay [4] is reported as “markedly ameliorated”.

(Values after patent US9572760B2, “Uses of compounds and mixtures from Antrodia cinnamomea mycelia” (Simpson Biotech Co., Ltd., priority 2013, dated 2017).)
